Source: patent US20250263370A1 (Tay Therapeutics Limited, priority 2022, published 2025)
Like-named read-outs stand apart in the source and are kept apart here.

How the values were obtained:
BRD4 BD1 = BRD4 BD1 (Homo sapiens (Human), UniProt O60885); assay: NanoBRET bromodomain assay, NanoLuc-BRD4-BD1 fusion in HEK293 cells; assay type: cell-based; conditions: top concentration 10 μM
Method: (§1) HEK293 cells were transfected using NanoLuc-BRD4-BD1 or NanoLuc-BRD4-BD2 fusion vectors and incubated at 37° C. in an atmosphere of 5% CO2 for 20-24 hours. The transfected cells were then dispensed into 96-well plates using 90 μl cell suspension per well containing 2×10^5 cells/mL in Opti-MEM and 1× final concentration of tracer. 90 μL per well of cell suspension without tracer was also dispensed into at least 3 wells as “No tracer control samples” for background correction. Serially diluted test compounds were prepared at 1000× concentration in DMSO and further diluted to 10× concentration in Opti-MEM. […] Plates were then incubated at 37° C. +5% 002 incubator for 2 hours. […] Donor emission (450 nm) and acceptor emission (610 nm) were measured using PHERAstar (BMG LabTech). For data analysis, the raw BRET ratio was generated and converted to milliBRET units with background correction using the formula: [(Acceptorsample/Donorsample−(Acceptorno tracer control/Donorno tracer control)]×1000. The mBU data was plotted as a function of compound concentration and IC50s for BRET assay were determined by nonlinear regression analysis of concentration response curves using the Collaborative Drug Discovery Vault software. The fold-selectivity was calculated by dividing the IC50 for BRD4 BD1 by the IC50 for BRD4 BD2.

[1] = Intrinsic clearance in liver microsomes, rat; assay type: in vitro ADME; conditions: rat, liver microsomes, pH 7.4, rat liver microsomes, read-out: Half-Life (T1/2) (min), Rat
Method: From stock solution of compound on 10 mM DMSO, a working solution of 0.1 mM is prepared by diluting the compound in DMSO. 6.25 μL of a 20 mg/mL solution of microsomes in PBS pH 7.4 buffer is added to 216.25 μL PBS pH 7.4 buffer (final microsome concentration—0.5 mg/mL). 25 μL of 10 mM solution of NADPH in PBS pH 7.4 buffer is added to the incubations (final NADPH concentration—1 mM). The mixture is pre-warmed to 37° C. for 10 minutes. 2.5 μL of test compound working solution is added (final compound concentration—1 μM with 1% DMSO). Aliquots of 30 μL are taken from the reaction solution at 0.5, 5, 15, 30 and 60 minutes. The reaction was stopped by the addition of 5 volumes of cold acetonitrile with IS (100 nM alprazolam, 200 nM caffeine and 100 nM tolbutamide). Samples were centrifuged at 3, 220 g for 40 minutes. Aliquots of 100 μL of the supernatant are mixed with 100 μL of ultra-pure H2O and used for LC-MS/MS analysis. The percent compound remaining at each time point is calculated with respect to that of the 0.5 min sample. The data are analysed to calculate half-life. Control experiments are run without NADPH and blank samples are prepared using DMSO without the test compound.
A 50 mM stock solution (in DMSO) is prepared for the compound. From the stock solution, a working solution of 0.5 mM is prepared by diluting the compound in DMSO. This concentration of working solution is prepared considering a final concentration of 1 uM with 0.1% DMSO. The compound (1 μL of working solution) is spiked in PBS with pH 7.4 ([…]) at a concentration of 1 μM. Subsequently, 110 μL of 10 mM NADPH is added (as a co-factor). The sample is incubated at 37° C. for 15 min. Following this, pre-warmed liver microsomes (27.5 μL; final protein conc. 0.5 mg/mL) are added. The samples are then incubated at 37° C. Aliquots of samples are withdrawn at 0, 5, 15, 30, 45 and 60 min. The reaction is stopped by using chilled acetonitrile containing internal standard. The samples are centrifuged, and the supernatants analysed by LC-MS/MS. The percent compound remaining at each time point is calculated with respect to that of the 0 min sample. The data are then analysed to calculate half-life and intrinsic clearance (CLint). Control experiments are run without NADPH and blank samples are prepared using DMSO without the test compound.

BRD4 BD2 = BRD4 BD2 (Homo sapiens (Human), UniProt O60885); assay: NanoBRET bromodomain assay, NanoLuc-BRD4-BD2 fusion in HEK293 cells; conditions: for IC50: NanoBRET, HEK293 cells, top concentration 10 μM; for Fold selectivity: IC50 for BRD4 BD1 divided by IC50 for BRD4 BD2, qualitative if an IC50 is at the upper limit;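 for all read-outs here: tracer displacement BRET read in transfected cells after 2 h compound exposure at 37 °C, signal in milliBRET units corrected against no-tracer background wells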
Method: as §1

[2] = Sprague-Dawley rat pharmacokinetics, IV and PO cassette dosing; assay type: in vivo; conditions: Method 1; for IV T1/2: IV 1 mg/kg; for PO F: PO 5 mg/kg
Method: Compounds were formulated in 5% DMSO, 40% PEG-400, 55% Milli-Q water at a concentration of 0.2 mg/mL for IV and at 0.5 mg/mL for PO. Two male Sprague-Dawley rats per arm were dosed with up to 5 compounds in cassette mode, which each compound being dosed at 1 mg/kg IV and 5 mg/kg PO. Blood was sampled at various timepoints and plasma isolated. 50 μL of plasma with 5 μL of blank Sprague-Dawley rat plasma were added to 200 μL of acetonitrile containing IS mixture. The samples were vortexed for 30 s. After centrifugation at 4 degrees Celsius, 3900 rpm for 15 min, the supernatant was diluted 3 times with water. 20 μL of diluted supernatant was injected into the LC/MS/MS system for quantitative analysis and concentration of analyte determined by comparison with matrix matched standard curve. WinNonlin (Phoenix™, version 8.3) or other similar software may be used for pharmacokinetic calculations.

[3] = Plasma stability assay, rat plasma; assay type: in vitro ADME; conditions: Method 2 (10 μM)
Method: From stock solution of compound in 10 mM DMSO, a working solution of 1 mM is prepared by diluting the compound in DMSO. To 398 μL of plasma pre-warmed at 37° C. for 15 minutes), 2 μL of working solution of compound is added, resulting in a final concentration of 5 μM (0.5% DMSO) for the compound. The sample is then incubated at 37° C. Aliquot is withdrawn at specified time-points (0, 15, 30, 60 and 120 mins). The reaction is stopped by addition of 450 μL cold acetonitrile containing internal standard (IS). […] Aliquots of the supernatant is analysed using LC-MS/MS. The percent remaining of the compound at each time point is calculated with respect to the control sample (0 min time-point).
A working solution of compound (500 μM) is prepared in DMSO (100%). To 735 μL of plasma, 15 μL of working solution of compound is added—resulting in a final concentration of 10 μM (2% DMSO) for the compound. The sample is then incubated at 37° C. Aliquot is withdrawn at time-points—0, 15, 30, 60, 90 and 120 mins. The reaction is stopped by using chilled acetonitrile containing internal standard (IS). The samples are centrifuged and the supernatants analyzed using LC-MS/MS. The percent remaining of the compound at each time point is calculated with respect to the control sample (0 min time-point).

| Compound | IC50 (BRD4 BD1) | half-life at 1 μM ([1]; Method 1) | IC50 (BRD4 BD2; BRD4 BD2 (IC50)) | Fold selectivity (BRD4 BD2) | IV T1/2 [2] | PO F [2] | Plasma Stability (% remaining at 120 minutes), Rat [3] | half-life at 1 μM ([1]; Method 2) | IC50 (BRD4 BD2; read-out: BRD4 BD2 (IC50)) |
| --- | --- | --- | --- | --- | --- | --- | --- | --- | --- |
| CCNC(=O)c1cc(OC(C)c2ccccc2)c(C(=O)NC)[nH]1 (racemic) [Example 95, N^5-ethyl-N^2-methyl-3-(1-phenylethoxy)-1H-pyrrole-2,5-dicarboxamide] | ≥ 10000 nM | > 60 min | 200 to 1000 nM | X (Fold >2 and ≤50) | – | – | – | – | – |
| CCNC(=O)c1cc(OC(C)c2ccc(Cl)cc2)c(C(=O)NC)[nH]1 (single isomer, unassigned) [Example 18, 3-(1-(4-chlorophenyl)ethoxy)-N^5-ethyl-N^2-methyl-1H-pyrrole-2,5-dicarboxamide] | ≥ 10000 nM | – | < 50 nM | XXX (Fold >200) | 1.1 h | 30% | – | – | – |
| CCNC(=O)c1cc(OC(C)c2ccccc2F)c(C(=O)NC)[nH]1 (single isomer, unassigned) [Example 20, N^5-ethyl-3-(1-(2-fluorophenyl)ethoxy)-N^2-methyl-1H-pyrrole-2,5-dicarboxamide] | ≥ 10000 nM | – | 50 to 200 nM | XX (Fold >50 and ≤200) | 0.4 h | 46% | – | – | – |
| CNC(=O)c1[nH]c(C(=O)NC2CCC(O)CC2)cc1OC(C)c1ccc(Cl)cc1 (single isomer, unassigned) [Example 29, 3-(1-(4-chlorophenyl)ethoxy)-N^5-(4-hydroxycyclohexyl)-N^2-methyl-1H-pyrrole-2,5-dicarboxamide] | – | > 60 min | – | XX (Fold >50 and ≤200) | – | – | 89% | – | – |
| CNC(=O)c1[nH]c(C(=O)N[C@H]2CC[C@H](O)CC2)cc1OC(C)c1ccc(Cl)cc1F (single isomer, unassigned) [Example 38, 3-(1-(4-chloro-2-fluorophenyl)ethoxy)-N^5-(trans-4-hydroxycyclohexyl)-N^2-methyl-1H-pyrrole-2,5-dicarboxamide] | ≥ 10000 nM | > 60 min | 50 to 200 nM | XX (Fold >50 and ≤200) | 1.4 h | 66% | – | – | – |
| CCNC(=O)c1cc(OC(C)c2ccc(Cl)cc2F)c(C(=O)NC)[nH]1 (single isomer, unassigned) [Example 41, 3-(1-(4-chloro-2-fluorophenyl)ethoxy)-N^5-ethyl-N^2-methyl-1H-pyrrole-2,5-dicarboxamide] | ≥ 10000 nM | > 60 min | 200 to 1000 nM | X (Fold >2 and ≤50) | 0.3 h | 69% | – | – | – |
| CNC(=O)c1[nH]c(C(=O)NC2CCC2)cc1OC(C)c1ccccc1F (single isomer, unassigned) [Example 43, N^5-cyclobutyl-3-(1-(2-fluorophenyl)ethoxy)-N^2-methyl-1H-pyrrole-2,5-dicarboxamide] | ≥ 10000 nM | – | 50 to 200 nM | XX (Fold >50 and ≤200) | 0.5 h | 58% | 20% | – | – |
| CNC(=O)c1[nH]c(C(=O)N[C@H]2CC[C@H](O)CC2)cc1OC(C)c1ccccc1F (single isomer, unassigned) [Example 45] | – | – | – | XX (Fold >50 and ≤200) | – | – | 88% | > 60 min | – |
| CNC(=O)c1[nH]c(C(=O)NC2COC2)cc1OC(C)c1ccccc1F (single isomer, unassigned) [Example 47, 3-(1-(2-fluorophenyl)ethoxy)-N^2-methyl-N^5-(oxetan-3-yl)-1H-pyrrole-2,5-dicarboxamide] | ≥ 10000 nM | – | 50 to 200 nM | XX (Fold >50 and ≤200) | – | – | 76% | > 60 min | – |
| CCNC(=O)c1cc(OC(C)c2c(F)cccc2F)c(C(=O)NC)[nH]1 (single isomer, unassigned) [Example 55, 3-(1-(2,6-difluorophenyl)ethoxy)-N^5-ethyl-N^2-methyl-1H-pyrrole-2,5-dicarboxamide] | – | – | – | — (Fold ≥0 and ≤2) | – | – | 88% | > 60 min | – |
| CCNC(=O)c1[nH]c(C(=O)NC)c(O[C@@H](C)c2ccccc2F)c1Br [Example 72, (S)-3-bromo-N^2-ethyl-4-(1-(2-fluorophenyl)ethoxy)-N^5-methyl-1H-pyrrole-2,5-dicarboxamide] | – | – | > 10000 nM | — (Fold ≥0 and ≤2) | – | – | 9% | 13 min | – |
| CNC(=O)c1[nH]c(C(=O)N[C@H](C)C(F)(F)F)cc1O[C@@H](C)c1ccccc1 [Example 119, N^2-methyl-3-((S)-1-phenylethoxy)-N^5-((R)-1,1,1-trifluoropropan-2-yl)-1H-pyrrole-2,5-dicarboxamide] | ≥ 10000 nM | – | > 10000 nM | — (Fold ≥0 and ≤2) | – | – | – | – | – |
| CNC(=O)c1[nH]c(C(=O)N[C@@H](C)C(F)(F)F)cc1O[C@@H](C)c1ccccc1 [Example 120, N^2-methyl-3-((S)-1-phenylethoxy)-N^5-((S)-1,1,1-trifluoropropan-2-yl)-1H-pyrrole-2,5-dicarboxamide] | ≥ 10000 nM | – | > 10000 nM | — (Fold ≥0 and ≤2) | – | – | – | – | – |
| CNC(=O)c1[nH]c(C(=O)NC(C)(C)C)cc1O[C@@H](C)c1ccccc1 [Example 121] | ≥ 10000 nM | – | 200 to 1000 nM | X (Fold >2 and ≤50) | – | – | – | – | – |
| CNC(=O)c1[nH]c(NC(C)=O)cc1O[C@@H](C)c1ccccc1F [Example 128, (S)-5-acetamido-3-(1-(2-fluorophenyl)ethoxy)-N-methyl-1H-pyrrole-2-carboxamide] | ≥ 10000 nM | – | 50 to 200 nM | XX (Fold >50 and ≤200) | – | – | – | – | – |
| (S)—N^2-ethyl-4-(1-(2-fluorophenyl) ethyl)-N^5,3-dimethyl-1H-pyrrole-2,5-dicarboxamide [Example 74] | ≥ 10000 nM | – | – | X (Fold >2 and ≤50) | – | – | – | – | 1000 to 10000 nM |
